molecular target: T1, α4β7 (adhesion of RPMI cells to CS-1) (Homo sapiens, UniProt P13612+P26010); experiment: RPMI-CS-1 cell adhesion assay; format: cell-based; conditions: adhesion of RPMI B-cell line (expresses α4β7) to CS-1 peptide coated microwells; read-out: RPMI-CS-1 IC50 value range
T1 construct: endogenous in cells
T1 sequence (P13612 34-1032): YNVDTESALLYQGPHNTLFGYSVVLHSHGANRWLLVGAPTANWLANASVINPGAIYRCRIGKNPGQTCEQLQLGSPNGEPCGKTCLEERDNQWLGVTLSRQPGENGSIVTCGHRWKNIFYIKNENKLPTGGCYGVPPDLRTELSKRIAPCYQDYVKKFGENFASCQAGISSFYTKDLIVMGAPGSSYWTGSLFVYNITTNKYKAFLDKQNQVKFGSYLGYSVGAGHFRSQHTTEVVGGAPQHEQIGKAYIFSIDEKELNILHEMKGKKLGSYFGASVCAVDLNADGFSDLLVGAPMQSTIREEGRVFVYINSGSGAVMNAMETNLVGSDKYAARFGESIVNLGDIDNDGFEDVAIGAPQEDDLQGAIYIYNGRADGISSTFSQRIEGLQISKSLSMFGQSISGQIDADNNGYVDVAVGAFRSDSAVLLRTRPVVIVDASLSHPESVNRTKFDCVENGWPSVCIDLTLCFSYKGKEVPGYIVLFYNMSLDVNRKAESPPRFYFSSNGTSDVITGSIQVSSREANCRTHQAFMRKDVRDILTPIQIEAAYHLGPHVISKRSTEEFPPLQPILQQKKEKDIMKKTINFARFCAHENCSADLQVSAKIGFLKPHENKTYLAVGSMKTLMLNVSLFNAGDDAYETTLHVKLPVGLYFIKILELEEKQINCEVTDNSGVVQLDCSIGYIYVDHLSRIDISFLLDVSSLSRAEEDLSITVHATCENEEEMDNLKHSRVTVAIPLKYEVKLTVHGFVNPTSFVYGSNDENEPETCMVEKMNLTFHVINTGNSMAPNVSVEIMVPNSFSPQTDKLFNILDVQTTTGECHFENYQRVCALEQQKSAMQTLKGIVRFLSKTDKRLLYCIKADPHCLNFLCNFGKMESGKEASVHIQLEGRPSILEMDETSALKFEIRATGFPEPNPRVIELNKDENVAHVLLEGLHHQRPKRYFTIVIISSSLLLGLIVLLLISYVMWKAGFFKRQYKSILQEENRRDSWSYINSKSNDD
T1 sequence (P26010 20-798): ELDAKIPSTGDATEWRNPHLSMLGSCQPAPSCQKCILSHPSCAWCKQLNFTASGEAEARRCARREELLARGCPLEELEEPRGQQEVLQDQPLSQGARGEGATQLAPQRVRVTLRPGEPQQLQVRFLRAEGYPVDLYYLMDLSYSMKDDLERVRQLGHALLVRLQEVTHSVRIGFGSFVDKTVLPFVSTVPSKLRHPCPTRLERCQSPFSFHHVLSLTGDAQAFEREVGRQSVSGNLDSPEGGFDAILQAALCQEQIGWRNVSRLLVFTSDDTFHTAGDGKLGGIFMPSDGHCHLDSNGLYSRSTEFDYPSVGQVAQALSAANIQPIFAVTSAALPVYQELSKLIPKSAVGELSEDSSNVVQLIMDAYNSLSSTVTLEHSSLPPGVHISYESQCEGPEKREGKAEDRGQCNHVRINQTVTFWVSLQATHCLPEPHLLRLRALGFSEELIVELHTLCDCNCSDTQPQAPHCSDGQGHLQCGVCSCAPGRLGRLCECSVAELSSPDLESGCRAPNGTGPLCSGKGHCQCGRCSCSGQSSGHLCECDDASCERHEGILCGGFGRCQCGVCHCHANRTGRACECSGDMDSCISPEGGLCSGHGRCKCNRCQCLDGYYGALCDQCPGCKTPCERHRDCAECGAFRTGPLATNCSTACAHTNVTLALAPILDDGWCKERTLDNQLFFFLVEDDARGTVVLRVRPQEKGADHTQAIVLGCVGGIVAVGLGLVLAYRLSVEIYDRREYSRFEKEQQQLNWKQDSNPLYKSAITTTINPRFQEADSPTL
Protocol: RPMI-CS-1 Cell Adhesion Assay:
The test compounds were added in increasing concentrations to RPMI cells and then the cell-compound mixture was added to CS-1 coated microwells. The plates were incubated, washed and the percentage of attached cells were quantitated.
The CS-1 derived peptide, […], and the scrambled control peptide, […], were synthesized at Tanabe Research Laboratories, USA, Inc. on a Beckman 990 synthesizer using t-Boc methodology. […] Microtiter plates were coated with 20 μg/ml human serum albumin (HSA) for 2 hours at room temperature, washed once with PBS and derivatized with 10 μg/ml SPDP for 1 hour. […] Unbound peptide was removed from the plates by washing with PBS. To block non-reacted sites, the plates were coated with 100 μl of a 2.5 mg/ml BSA solution in PBS for one hour at 37° C. 100 μl of RPMI cells (2.5×10^6 cells/ml) in Dulbecco's Modified Eagles Medium (DMEM) plus 0.25% ovalbumin were added to peptide coated dishes and incubated for 1 hour at 37° C. […] To do this, the enzyme substrate p-nitrophenyl-N-acetyl-β-D-glucoseaminide is dissolved at 7.5 mM in 0.1 M citrate buffer pH 5 and then mixed with an equal volume of 0.5% Triton X100. 50 μl of the substrate solution was added to the plates and the plates were incubated at 37° C. for 60 minutes.
In this assay, IC50 value ranges (μM) are depicted by A, B, C and D. These ranges as follows. D>5≧C>1≧B>0.3≧A

| Structure (SMILES) | IC50 |
| --- | --- |
| CC(=O)Nc1ccccc1-c1ccc(C[C@H](NC(=O)c2c(Cl)cccc2Cl)C(=O)O)cc1 [Example 25] | 0.3 to 1 µM |
| COC(=O)Nc1ccccc1-c1ccc(C[C@H](NC(=O)c2c(Cl)cccc2Cl)C(=O)O)cc1 [Example 26, N-(2,6-Dichlorobenzoyl)-4-[2-(methoxycarbonylamino)phenyl]-L-phenylalanine] | 0.3 to 1 µM |
| CN(C)c1ccccc1-c1ccc(C[C@H](NC(=O)c2c(Cl)cccc2Cl)C(=O)O)cc1 [Example 27, N-(2,6-Dichlorobenzoyl)-4-[2-(N,N-dimethylamino)phenyl]-L-phenylalanine] | < 0.3 µM |
| NC(=O)Nc1ccccc1-c1ccc(C[C@H](NC(=O)c2c(Cl)cccc2Cl)C(=O)O)cc1 [Example 28, N-(2,6-Dichlorobenzoyl)-4-(2-ureidophenyl)-L-phenylalanine] | 0.3 to 1 µM |
| COc1cccc(N(C)C)c1-c1ccc(C[C@H](NC(=O)c2c(Cl)cccc2Cl)C(=O)O)cc1 [Example 29, N-(2,6-Dichlorobenzoyl)-4-[2-(N,N-dimethylamino)-6-methoxyphenyl]-L-phenylalanine] | 1 to 5 µM |
| COc1cccc(O)c1-c1ccc(C[C@H](NC(=O)c2c(Cl)cccc2Cl)C(=O)O)cc1 [Example 31, N-(2,6-Dichlorobenzoyl)-4-(2-hydroxy-6-methoxyphenyl)-L-phenylalanine] | < 0.3 µM |
| COC(=O)[C@H](Cc1ccc(-c2ccccc2OCC#N)cc1)NC(=O)c1c(Cl)cccc1Cl [Example 33, N-(2,6-Dichlorobenzoyl)-4-[2-(cyanomethoxy)phenyl]-L-phenylalanine methyl ester] | 0.3 to 1 µM |
| CN1CCCC1CCOc1ccccc1-c1ccc(C[C@H](NC(=O)c2c(Cl)cccc2Cl)C(=O)O)cc1 (stereo partly shown) [Example 43] | 1 to 5 µM |
| CN1CCCC(COc2ccccc2-c2ccc(C[C@H](NC(=O)c3c(Cl)cccc3Cl)C(=O)O)cc2)C1 (stereo partly shown) [Example 44] | 0.3 to 1 µM |
| O=Cc1ccccc1-c1ccc(C[C@H](NC(=O)c2c(Cl)cccc2Cl)C(=O)O)cc1 [Example 45, N-(2,6-Dichlorobenzoyl)-4-(2-formylphenyl)-L-phenylalanine] | < 0.3 µM |
| O=C(O)c1ccccc1-c1ccc(C[C@H](NC(=O)c2c(Cl)cccc2Cl)C(=O)O)cc1 [Example 52, N-(2,6-Dichlorobenzoyl)-4-(2-carboxyphenyl)-L-phenylalanine] | > 5 µM |
| O=C(NCc1ccccc1)c1ccccc1-c1ccc(C[C@H](NC(=O)c2c(Cl)cccc2Cl)C(=O)O)cc1 [Example 53, N-(2,6-Dichlorobenzoyl)-4-[2-(N-benzylcarbamoyl)phenyl]-L-phenylalanine] | 1 to 5 µM |
| CNC(=O)c1ccccc1-c1ccc(C[C@H](NC(=O)c2c(Cl)cccc2Cl)C(=O)O)cc1 [Example 54, N-(2,6-Dichlorobenzoyl)-4-[2-(N-methylcarbamoyl)phenyl]-L-phenylalanine] | 0.3 to 1 µM |
| CCCCNC(=O)c1ccccc1-c1ccc(C[C@H](NC(=O)c2c(Cl)cccc2Cl)C(=O)O)cc1 [Example 55, N-(2,6-Dichlorobenzoyl)-4-[2-(N-n-butylcarbamoyl)phenyl]-L-phenylalanine] | 1 to 5 µM |
| O=C(NCCO)c1ccccc1-c1ccc(C[C@H](NC(=O)c2c(Cl)cccc2Cl)C(=O)O)cc1 [Example 56, N-(2,6-Dichlorobenzoyl)-4-[2-[N-(2-hydroxyethyl)carbamoyl]phenyl]-L-phenylalanine] | 0.3 to 1 µM |

Now from value to compound:

| IC50 | Structure (SMILES) |
| --- | --- |
| 0.3 to 1 µM | O=C(N[C@@H](Cc1ccc(-c2ccccc2O)cc1)C(=O)O)c1c(Cl)cccc1Cl [Example 30, N-(2,6-Dichlorobenzoyl)-4-(2-hydroxyphenyl)-L-phenylalanine] |
| < 0.3 µM | O=C(O)COc1ccccc1-c1ccc(C[C@H](NC(=O)c2c(Cl)cccc2Cl)C(=O)O)cc1 [Example 32, N-(2,6-Dichlorobenzoyl)-4-[2-(carboxymethoxy)-phenyl]-L-phenylalanine] |
| 1 to 5 µM | CCCCOc1ccccc1-c1ccc(C[C@H](NC(=O)c2c(Cl)cccc2Cl)C(=O)O)cc1 [Example 34] |
| 1 to 5 µM | CC(C)COc1ccccc1-c1ccc(C[C@H](NC(=O)c2c(Cl)cccc2Cl)C(=O)O)cc1 [Example 35] |
| < 0.3 µM | O=C(O)CCCOc1ccccc1-c1ccc(C[C@H](NC(=O)c2c(Cl)cccc2Cl)C(=O)O)cc1 [Example 36] |
| 0.3 to 1 µM | O=C(N[C@@H](Cc1ccc(-c2ccccc2OCCCO)cc1)C(=O)O)c1c(Cl)cccc1Cl [Example 37] |
| 0.3 to 1 µM | O=C(N[C@@H](Cc1ccc(-c2ccccc2OCc2ccccn2)cc1)C(=O)O)c1c(Cl)cccc1Cl [Example 38] |
| 0.3 to 1 µM | O=C(N[C@@H](Cc1ccc(-c2ccccc2OCc2ccncc2)cc1)C(=O)O)c1c(Cl)cccc1Cl [Example 39] |
| 0.3 to 1 µM | O=C(N[C@@H](Cc1ccc(-c2ccccc2OCc2cccnc2)cc1)C(=O)O)c1c(Cl)cccc1Cl [Example 40] |
| 1 to 5 µM | Cc1noc(C)c1COc1ccccc1-c1ccc(C[C@H](NC(=O)c2c(Cl)cccc2Cl)C(=O)O)cc1 [Example 41] |
| 0.3 to 1 µM | Cc1ncc(COc2ccccc2-c2ccc(C[C@H](NC(=O)c3c(Cl)cccc3Cl)C(=O)O)cc2)s1 [Example 42] |
| < 0.3 µM | O=C(N[C@@H](Cc1ccc(-c2ccccc2CNc2ccccc2)cc1)C(=O)O)c1c(Cl)cccc1Cl [Example 46, N-(2,6-Dichlorobenzoyl)-4-[2-[(phenylamino)methyl]phenyl]-L-phenylalanine] |
| < 0.3 µM | NCc1ccccc1-c1ccc(C[C@H](NC(=O)c2c(Cl)cccc2Cl)C(=O)O)cc1 [Example 47, N-(2,6-Dichlorobenzoyl)-4-[2-(aminomethyl)phenyl]-L-phenylalanine] |
| 1 to 5 µM | O=C(N[C@@H](Cc1ccc(-c2ccccc2CNCc2ccccc2)cc1)C(=O)O)c1c(Cl)cccc1Cl [Example 48, N-(2,6-Dichlorobenzoyl)-4-[2-[(benzylamino)methyl]phenyl]-L-phenylalanine] |
| < 0.3 µM | O=C(N[C@@H](Cc1ccc(-c2ccccc2CO)cc1)C(=O)O)c1c(Cl)cccc1Cl [Example 50, N-(2,6-Dichlorobenzoyl)-4-[2-(hydroxymethyl)phenyl]-L-phenylalanine] |
| 0.3 to 1 µM | COCc1ccccc1-c1ccc(C[C@H](NC(=O)c2c(Cl)cccc2Cl)C(=O)O)cc1 [Example 51, N-(2,6-Dichlorobenzoyl)-4-[2-(methoxymethyl)phenyl]-L-phenylalanine] |
